What is called pIC50 is −log10 of the IC50, conventionally taken in molar units. Usually inhibition stands for the percentage by which the read-out fell short of the control. One may read the melting point as the temperature of the solid-liquid transition.

Data on four compounds can be found in patent US20120115907A1, “NOVEL COMPOUNDS AS INHIBITORS OF RENIN” (CADILA HEALTHCARE LIMITED, priority 2009, published 2012).

pIC50: −log10 of the molar value.

Series [1] addresses T1, human recombinant renin (Homo sapiens, UniProt P00797).
T1 construct: purchased Cayman 10006270
T1 sequence (P00797 67-406): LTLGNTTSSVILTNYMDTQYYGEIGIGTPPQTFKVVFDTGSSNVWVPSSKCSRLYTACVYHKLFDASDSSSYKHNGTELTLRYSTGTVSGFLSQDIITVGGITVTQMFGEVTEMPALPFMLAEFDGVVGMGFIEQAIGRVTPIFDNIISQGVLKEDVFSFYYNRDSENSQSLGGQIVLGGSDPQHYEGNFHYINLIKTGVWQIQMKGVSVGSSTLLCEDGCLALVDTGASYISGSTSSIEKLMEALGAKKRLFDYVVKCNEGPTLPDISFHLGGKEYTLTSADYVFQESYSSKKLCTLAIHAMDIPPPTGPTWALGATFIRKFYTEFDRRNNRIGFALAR
The series can be described thus: Inhibition of human recombinant renin (modified Cayman renin inhibitor screening assay, fluorescence). Type of series: biochemical. The note with it: for inhibition at 0.01 µM: read-out: Renin inhibition (percent inhibition of renin activity) at 0.01 μM; for inhibition at 0.1 µM: read-out: Renin inhibition (percent inhibition of renin activity) at 0.1 μM. The procedure: In-vitro protocol for the Inhibition of human recombinant renin by the compound of invention • Procedure: The enzymatic in vitro assay was performed in 96 well polypropylene plate (Nunc), using a modified Renin inhibitor screening assay protocol (Cayman, cat no: 10006270). The reaction system comprised assay buffer containing 50 mM Tris-HCL, pH=8.0 & 100 mM sodium chloride, human recombinant rennin (1:20 diluted with fixed activity), synthetic renin substrates (Cayman, cat no: 10006906) (14.4 μM) and different concentrations of renin inhibitors in DMSO in a total reaction system of 100 μl. The entire reaction mixture were incubated at 37° C. for 30 mins and the fluorescence was read at excitation wavelengths of 320-360 nm and emission wavelengths of 490-520 nm. Test compounds efficacy was determined by the percent inhibition of renin activity using Aliskiren (Tekturna) as a reference standard.
Following table represents measured IC50 values of the selected compounds for its inhibition of human recombinant renin.

Series [2] has as its system Guinea Pigs. The series can be described thus: Anaesthetized Guinea Pig Model (furosemide-treated, blood pressure via carotid artery). The format is in vivo. Details: unit not given beside the values. As to conditions: intravenous, change from pretreatment. The procedure: Anaesthetized Guinea Pig Model
Experimental Procedure: Guinea Pigs were Treated with Furosemide in Drinking Water
(5 mg/kg/day) for four days and intramuscular injection (10 mg/kg) at 18 and 3 hr before experiment. There after they were anaesthetized by using intramuscular injection of xylazine and ketamine (7:70 mg/kg mixture). The left or right jugular vein was exposed and cannulated for intravenous administration of the NCEs. The to left or right carotid artery was exposed and cannulated for recording blood pressure using Biopac system. 0 (vehicle control), 3 and 10 mg of NCEs were administered and change in blood pressure from pretreatment was measured.

Where [3] appears, read: 0.01 μM compound, 37° C., 30 mins, human recombinant renin.
Where [4] appears, read: 0.1 μM compound, 37° C., 30 mins, human recombinant renin.

Take `O=C(NC1CCNCC1C(=O)N(Cc1cccc(Cl)c1Cl)C1CC1)c1ccc(OCCOc2c(Cl)cccc2Cl)cc1` (stereo not drawn) [Example 1, N-cyclopropyl-N-(2,3-dichlorobenzyl)-4-(4-(2-(2,6-dichlorophenoxy)ethoxy)benzamido) piperidine-3-carboxamide]: the melting point was in the range of 66 to 68 °C. The pIC50 in series [1] is 7.80. The inhibition at 0.01 µM in series [1] (setting [3]) amounted to 88%. Besides, the inhibition at 0.1 µM in series [1] (setting [4]) turned out to be 100%. Besides, the “Reduction in M.A.B.P” value in series [2] (3 mg) is 18. The “Reduction in M.A.B.P” value in series [2] (10 mg) turned out to be 30.

As to `Cc1cc(Cl)c(OCCOc2ccc(C(=O)N[C@H]3CCNCC3C(=O)N(Cc3cccc(C)c3C)C3CC3)cc2)c(Cl)c1` (stereo partly drawn) [Example 26, (4S)—N-Cyclopropyl-4-(4-(2-(2,6-dichloro-4-methylphenoxy)ethoxy)benzamido)-N-(2,3-dimethylbenzyl)piperidine-3-carboxamide], in series [1], the pIC50 was 7.68. For the same compound, in series [1] (setting [3]), the “Renin inhibition (percent inhibition of renin activity) at 0.01 μM” value was 67%. In series [1] (setting [4]), the “Renin inhibition (percent inhibition of renin activity) at 0.1 μM” value was 97%. Also, the “Reduction in M.A.B.P” value is given as 14 in series [2] (3 mg) and 28 in series [2] (10 mg).

On to `COc1ccccc1CN(C(=O)C1CNCC[C@@H]1NC(=O)c1ccc(OCCOc2c(Cl)cc(C)cc2Cl)cc1)C1CC1.Cl` (stereo partly drawn) [Example 31, (4S)—N-Cyclopropyl-4-(4-(2-(2,6-dichloro-4-methylphenoxy)ethoxy)benzamido)-N-(2-methoxybenzyl)piperidine-3-carboxamide hydrochloride], for which the pIC50 in series [1] was 7.43. In addition, the inhibition at 0.01 µM in series [1] (setting [3]) amounted to 22%. In addition, the inhibition at 0.1 µM in series [1] (setting [4]) was found to be 91%. For the same compound, the figures for the “Reduction in M.A.B.P” value in series [2] (3 mg) and in series [2] (10 mg) were 8 and 28, respectively.

Take `Cc1cc(C)cc(CN(C(=O)C2CNCCC2NC(=O)c2ccc(OCCOc3c(Cl)cccc3Cl)cc2)C2CC2)c1` (stereo not drawn) [Example 4, N-Cyclopropyl-4-(4-(2-(2,6-dichlorophenoxy)ethoxy)benzamido)-N-(3,5-dimethylbenzyl)piperidine-3-carboxamide]: in series [1] (setting [3]), the inhibition at 0.01 µM is under 10%. Further, the inhibition at 0.1 µM in series [1] (setting [4]) is 47%.
